Patent US9382295B2, “Cyclic depsipeptide compounds and their uses” (Cypralis Limited, priority 2012, dated 2016)
pIC50: −log10 of the molar value. Like-named read-outs stand apart in the source and are kept apart here.

Legend:
[1] = biological target: T1, calcineurin/cyclophilin A (Homo sapiens, UniProt P62937+P63098+Q08209); test: Calcineurin phosphatase (CaN) assay in the presence of Cyp A; assay type: biochemical; settings: inhibitor in 1:1 complex with Cyp A; read-out: CaN + CypA (IC50 in the calcineurin/cyclophilin A assay)
T1 construct: purchased Enzo Life Sciences (calcineurin, calmodulin); Sigma (CypA) BML-AK804; C3805
Excerpt: **Calcineurin Phosphatase (CaN) Assay The calcineurin phosphatase assay is a means for estimating the immunosuppressive potential of a test compound. Calcineurin is a serine-threonine protein phosphatase that on activation dephosphorylates members of the nuclear factor of activated T cells (NFAT), which are important in T lymphocyte activation. […] To investigate the immunosuppressive potential of exemplary compounds of Formula 1, which are novel cycloundecadepsipeptide compounds, their ability to inhibit calcineurin activity was measured in the presence of Cyp A. The CaN assay kit used is based on a colorimetric assay for measuring calcineurin phosphatase activity, and it is commercially available (Enzo Life Sciences and Calbiochem). Calmodulin is also required for calcineurin activity and RH phosphopeptide is used as an efficient peptide substrate for calcineurin. […] The detection of free phosphate released is based on the classic Malachite green assay. Enzo Life Sciences CaN Assay Kit: BML-AK804 2× assay buffer: 100 mM Tris, pH7.5, 200 mM NaCl, 12 mM MgCl2, 1 mM DTT, 0.05% NP-40, 1 mM CaCl2 Calmodulin (Human, Recombinant): was thawed on ice, diluted 1:50 with 2× assay buffer, and then stored on ice. Calcineurin: was thawed quickly, stored on ice immediately, diluted 1:12.5 with 1× assay buffer, and then stored on ice. R-II Substrate: 915 μL ultrapure water (UPW) was added to the 1.5 mg vial substrate to give a final concentration of 0.75 mM. Inhibitors: 2.5 mM inhibitor in 100% DMSO. Cyp A: recombinant human CypA (Sigma C3805), 1 mg/ml; Recombinant 6-his tagged CypA prepared by the Univ. of Edinburgh was also used. […] Inhibitor dilutions: inhibitor compounds were diluted in UPW in polypropylene low-binding 96 well plates at 5x the final assay concentration. For samples ‘without Cyp A’, a 4-point dilution series of the inhibitor was prepared in duplicate to obtain a final assay concentration of 10, 1, 0.1 and 0.01 μM. […] Cs A inhibitor controls were also prepared to obtain a final concentration of 10 μM Cs A with and without 10 μM Cyp A. Assay Setup: using the half area 96 well plates supplied with the kit, 10 μl UPW was added to duplicate wells to provide the non-inhibited control. 10 μl of the inhibitor or the inhibitor/Cyp A complex was added to the appropriate sample wells. 25 μl of the 2× assay buffer with CaM was added to all wells, then 5 μl of CaN was added to all wells (40 U per well final concentration) except duplicate ‘no calcineurin blank’ wells to which 5 μL 1× assay buffer was added. […] The reaction was started by the addition of 10 μl RII-peptide (0.15 mM final concentration). The reaction was allowed to proceed at 30° C. for a time period in which the reaction is linear for about 60 minutes. The reaction was then terminated by adding 100 μl of the Malachite Green reagent. […] The data were analyzed by subtracting ‘no Calcineurin blank’ from all the absorbance readings and plotting the background corrected absorbances against Log10 inhibitor concentration. A sigmoidal-dose response curve was fitted to the data using GraphPad Prism Software. […] It exerts its immunosuppressive activity by binding to cyclophilin A to form a complex, which then binds to calcineurin and thereby inhibits calcineurin activity.

[2] = Water solubility assay (pH 7.8 buffer); assay type: physicochemical; settings: pH 7.8
In short: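 DMSO stocks were diluted into 35 mM HEPES pH 7.8 to final 0–100 μM with 1% DMSO, in triplicate. Plates were shaken 18 h at 25 °C, then precipitation was detected as increased absorbance at 650 nm. Values give the concentration (μM) at which the compound remains in solution.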

[3] = Rat pharmacokinetics, iv and po dosing, whole blood and plasma; assay type: in vivo; settings: for AUC(0-inf) / AUC(0-t) / Cmax / half-life / clearance / Vd / bioavailability / Tmax: mean; for half-life: read-out: half-life (T1/2) (converted); for clearance: read-out: systemic clearance (converted); for Vd: read-out: volume of distribution at the terminal phase; for bioavailability: po 10 mg/kg vs iv 1 mg/kg
Protocol: Rat pharmacokinetic data was obtained for example 2, following iv dosing at 1 mg/kg and po dosing at 10 mg/kg and individual analysis of plasma and whole blood samples at various time points was carried out.

T1 sequence (P63098 whole entry, other chains not shown): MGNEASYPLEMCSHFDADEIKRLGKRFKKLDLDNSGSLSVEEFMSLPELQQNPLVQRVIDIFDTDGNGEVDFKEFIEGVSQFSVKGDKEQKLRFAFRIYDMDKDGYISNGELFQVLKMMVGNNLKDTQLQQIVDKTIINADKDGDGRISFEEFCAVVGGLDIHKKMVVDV
T1 sequence (P62937 whole entry, other chains not shown): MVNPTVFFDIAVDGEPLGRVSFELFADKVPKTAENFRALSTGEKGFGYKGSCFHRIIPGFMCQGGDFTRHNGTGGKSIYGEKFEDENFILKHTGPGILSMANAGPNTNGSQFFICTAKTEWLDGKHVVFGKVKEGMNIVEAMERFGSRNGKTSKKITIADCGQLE

pIC50 [1]: < 6.00
solubility at 18 h [2]: > 100 µM
blood plasma ratio ([3]; intravenous, 1 mg/kg, from volumes of distribution in plasma and whole blood, read-out: difference in blood to plasma ratio): ~3
systemic clearance relative to hepatic blood flow in rats (3.31 L/hr/kg) ([3]; plasma, iv 1 mg/kg): 1.26 fold
volume of distribution relative to total body water (0.67 L/kg) in rats ([3]; plasma, iv 1 mg/kg): 44.69 fold
AUC(0-inf) ([3]; plasma, iv 1 mg/kg): 239 ng·h/mL
AUC(0-t) ([3]; plasma, iv 1 mg/kg): 197 ng·h/mL
Cmax ([3]; plasma, iv 1 mg/kg): 275 ng/mL
half-life ([3]; plasma, iv 1 mg/kg): 4.96 h
clearance ([3]; plasma, iv 1 mg/kg): 69.7 mL/min/kg
Vd ([3]; plasma, iv 1 mg/kg): 29.9 L/kg
bioavailability ([3]; plasma): 95.9%
AUC(0-inf) ([3]; plasma, po 10 mg/kg): 2290 ng·h/mL
AUC(0-t) ([3]; plasma, po 10 mg/kg): 2250 ng·h/mL
Tmax ([3]; plasma, po 10 mg/kg): 2 h
Cmax ([3]; plasma, po 10 mg/kg, read-out: Cmax): 328 ng/mL
half-life ([3]; plasma, po 10 mg/kg): 4.4 h
systemic clearance as share of hepatic blood flow in rats (3.31 L/hr/kg) ([3]; whole blood, iv 1 mg/kg): 35.0%
volume of distribution relative to total body water (0.67 L/kg) in rats ([3]; whole blood, iv 1 mg/kg): 15.40 fold
AUC(0-inf) ([3]; whole blood, iv 1 mg/kg): 859 ng·h/mL
AUC(0-t) ([3]; whole blood, iv 1 mg/kg): 827 ng·h/mL
Cmax ([3]; whole blood, iv 1 mg/kg): 643 ng/mL
half-life ([3]; whole blood, iv 1 mg/kg): 6.14 h
clearance ([3]; whole blood, iv 1 mg/kg): 19.3 mL/min/kg
Vd ([3]; whole blood, iv 1 mg/kg): 10.3 L/kg
bioavailability ([3]; whole blood): 70.1%
AUC(0-inf) ([3]; whole blood, po 10 mg/kg): 6020 ng·h/mL
AUC(0-t) ([3]; whole blood, po 10 mg/kg): 5930 ng·h/mL
Tmax ([3]; whole blood, po 10 mg/kg): 2 h
Cmax ([3]; whole blood, po 10 mg/kg, read-out: Cmax): 678 ng/mL
half-life ([3]; whole blood, po 10 mg/kg): 4.03 h
SMILES: CC(C)CC1NC(=O)[C@H](CC(C)C)N(C)C(=O)CN(C)C(=O)C([C@@H](C)O)NC(=O)C([C@H](O)[C@H](C)CCN2CCOCC2)N(C)C(=O)C(C(C)C)N(C)C(=O)C(CC(C)C)NC(=O)C(CC(C)C)N(C)C(=O)C(C(C)C)OC(=O)C(C)NC(=O)C(CC(C)C)N(C)C1=O (stereo in doubt) [Example 2, cyclo-[(3R,4R,5S)-4-(hydroxy)-3-methyl-5-(methylamino)-1-N-morpholino-hexanoic acid-Thr-Sar-MeLeu-Leu-MeLeu-Ala-D-Hiv-MeLeu-Leu-MeVal]]
